We go through eight compounds from paper PMC8179002, “Inhibitors of thiol-mediated uptake” (Chemical Science, 2020).

Like-named read-outs stand apart in the source and are kept apart here.

Data set [1] is described as follows: Relative cell viability in HCHT screening (propidium iodide negative nuclei count). The class given is cell-based. Conditions: human; for GI50: HeLa, removal, tinc 0.5 h with 1 (10 µM), read-out: GI50, concentration causing 50% cell growth inhibition. As for the experimental part: (§1) With COCs 1 and 2 as cell-penetrating reporters, a fully automated, fluorescent microscopy image-based high-content high-throughput (HCHT)[19] inhibitor screening assay was developed. HeLa cells in multiwell plates are incubated with a reporter at constant and inhibitors at varying concentrations and incubation times. Hindered reporter uptake then causes decrease of fluorescence inside of cells (Fig. 3a). Automated data analysis[19] was established to extract average fluorescence intensity per cell and, at the same time, cell viability from propidium iodide negative nuclei count (Fig. 3 and S3–S6 ^†). Standard assay conditions consisted of pre-incubation of HeLa cells with inhibitors for different periods of time, followed by the removal of inhibitors and the addition of reporters, thus excluding possible interactions between the two in the extracellular environment. In alternative co-incubation conditions, inhibitors were not removed before the addition of reporters to allow for eventual interactions between the two.
To be able to extract the fluorescent integrated intensity information (sum of the intensities of all the pixels included in the mask) from the green channel for live cell only, the image analysis pipeline contains several steps of cell filtering and selection:
1) Firstly, PI is used to stain any remaining nuclei of dead cell. In the analysis pipeline, all the “dead” nuclei are detected based on their fluorescent intensity in the PI channel (Figure […]
Fig. S4 (A) PI positive nuclei mask (fluorescent intensity threshold of 1000). (B) Overlap image of dead nuclei mask and original all cell body mask. (C) Resulting cell mask after removing any cell marked by a dead nucleus, new mask is called “Live Cell”. Scale bar: 50 μm.
2) Elimination of non-full cells from the border of the image is performed, to avoid inaccurate fluorescent integrated intensity quantification (fluorescent integrated intensity = sum of intensity of all the pixel of the object) (Figure S5).
(1 picture or pasted object on this page, not shown here)
4.3. HCHT Inhibitor Screening with ETP as Reporter […]
Relative cell viability (RV) for each condition in the presence of inhibitors were calculated using the count value of living cells by dividing the count value of living cells with addition of reporter 1, Hoechst 33342 and PI, for each set of experiments. Duplicates were performed for each condition. The resulting dependence of the relative cell viability (RVrel) to the concentration of inhibitors (cinhibitor) was plotted and fitted with Equation (S2) to retrieve the concentration causing 50% cell growth inhibition (GI50) value and the Hill coefficient (n).
RVrel = 1 / (1 + (GI50 / cinhibitor)n) (S2)
Note: Reporter 1 were not toxic for 1 h at 10 μM.S2 Also in this study, the count value of living cells with addition of reporter 1, Hoechst 33342 and PI is always similar to that of living cells with only addition of Hoechst 33342 and PI.
Relative cell viability (RV) for each condition with inhibitors were calculated using the count value of living cells by dividing the count value of living cells with addition of reporter 2, Hoechst 33342 and PI, for each set of experiments. Duplicates were performed for each condition. The resulting dependence of the relative cell viability (RVrel) to the concentration of inhibitors (cinhibitor) was plotted and fitted with Equation (S2) to retrieve the concentration causing 50% cell growth inhibition (GI50) value and the Hill coefficient (n).
Note: Reporter 2 were not toxic for 24 h at 10 μM.S3 Also in this study, the count value of living cells with addition of reporter 2, Hoechst 33342 and PI is always similar to that of living cells with only addition of Hoechst 33342 and PI.
4.4.1. Screening with Disulfides as Inhibitors
4.4.1.1. Screening with ETP as Inhibitors
Fig. S35 Automatically analyzed HCHT data showing fluorescence intensity (filled symbols) and relative viability (empty symbols) of HeLa cells after pre-incubation with 3 for 1 h (blue […]

Data set [2] relates to cellular uptake of 1 in HeLa Kyoto cells. The data set can be described thus: cells. The format is cell-based. Conditions: HeLa; for minimal effective concentration / IC50: HeLa Kyoto, removal, tinc 0.5 h with 1 (10 µM); for minimal effective concentration: read-out: MIC, inhibition of cellular uptake of 1; for IC50: read-out: IC50, inhibition of cellular uptake of 1. As for the experimental part:
as §1
4. High-Content High-Throughput (HCHT) Inhibitor Screening
4.1. General Procedure for HCHT Inhibitor Screening
4.1.1. Pre-Incubation of Inhibitors
HeLa Kyoto cells were seeded at 1.2 ×10^4 cells/well in FluoroBrite DMEM + 10% FBS on μ-Plate 96-well Black ibiTreat sterile and kept at 37 °C with 5% CO2 overnight. Next day, serial dilutions of the inhibitors in PBS (10x final concentration), reporter 1 or 2 (100 μM in PBS) and a solution of Hoechst 33342 (100 μg/mL) and PI (10 μg/mL) in PBS were prepared freshly in a 96-well V-bottom plate. Then, cells were washed with PBS ([…]) and the media was exchanged to FluoroBrite DMEM (4 x 150 μL/well) using a plate washer (Biotek EL406®), keeping always a final volume of 135 μL/well. The inhibitor solutions from the V-bottom plate were added to the cells (15 μL/well, 10x final concentration in PBS) using an electronic multichannel pipettes to reach a final volume of 150 μL/well. Cells were incubated for the time of interest (for details of each inhibitors, see Section 4.3 and 4.4) at 37 °C with 5%
CO2. After this, cells were washed again using the plate washer and reporter solution 1 or 2 from the V-bottom plate was added (15 μL/well) using an electronic multichannel pipettes to reach a final volume of 150 μL/well and a final concentration of 10 μM, except for the control wells, where only PBS was added (15 μL/well). After 30 min of incubation at 37 °C with 5% CO2, the plate was washed again using the plate washer. Then, the solution of Hoechst 33342 and PI from V-bottom plate was added (15 μL/well) using an electronic multichannel pipettes to reach a final volume of 150 μL/well. After 15 min of incubation at 37 °C with 5% CO2, the plate was washed one last time and the cells were kept in clean FluoroBrite DMEM. During imaging, samples were kept at 37 °C with 5% CO2 in the microscope.
4.1.2. Co-Incubation of Inhibitors and Reporters […]
serial dilutions of the inhibitors in PBS (10x final concentration), reporter 1 or 2 (110 μM in […]
freshly in a 96-well V-bottom plate. Then, cells were washed with the plate washer. The inhibitor solutions from the V-bottom plate were added to the cells (15 μL/well, 10x final concentration in PBS) using an electronic multichannel pipettes to reach a final volume of 150 μL/well. Cells were incubated for the time of interest (for details of each inhibitors, see Section 4.3 and 4.4) at 37 °C with 5% CO2. Reporter solution 1 or 2 from V-bottom plate was then added (15 μL/well) using an electronic multichannel pipettes to reach a final volume of 165 μL/well and a final concentration of 10 μM 30 min before the next washing process, except for the control wells, where only PBS was added (15 μL/well). The plate was washed again using the plate washer. The solution of Hoechst 33342 and PI from V-bottom plate was added (15 μL/well) using an electronic multichannel pipettes to reach a final volume of 150 μL/well. After […]

[3] abbreviates: 0.5 h, tpre 0.5 h with inhibitor.
Setting [4] is: GI50, concentration causing 50% cell growth inhibition.

Usually IC50 stands for the concentration needed to halve the response being measured. `O=C(O)C1CS[S+]([O-])C1` (centres unmarked) [compound 23]: the GI50 in data set [1] (tpre 1 h with inhibitor) was greater than 2 mM; in data set [1] (tpre 2 h with inhibitor), 1.78 ± 0.12 mM; in data set [1] (tpre 4 h with inhibitor), 1.47 ± 0.07 mM. Moreover, the minimal effective concentration in data set [2] (1 h, tpre 1 h with inhibitor) was 1000 µM; in data set [2] (2 h, tpre 2 h with inhibitor), 1000 µM; in data set [2] (4 h, tpre 4 h with inhibitor) it was 900 µM. The IC50 in data set [2] (tpre 1 h with inhibitor) is greater than 2 mM; in data set [2] (tpre 2 h with inhibitor) it was greater than 2 mM; in data set [2] (tpre 4 h with inhibitor), greater than 1 mM.

In the case of `O=C(O)CNC(=O)c1ccc2c(c1)S[S+]([O-])S2` (centres unmarked) [compound 24], the GI50 in data set [1] (tpre 0.5 h with inhibitor), in data set [1] (tpre 1 h with inhibitor) and in data set [1] (tpre 2 h with inhibitor) was greater than 0.02 mM each time. In addition, the IC50 in data set [2] (setting [3]), in data set [2] (tpre 1 h with inhibitor) and in data set [2] (tpre 2 h with inhibitor) was greater than 0.02 mM throughout. The minimal effective concentration in data set [2] (setting [3]) is greater than 20 µM; in data set [2] (1 h, tpre 1 h with inhibitor), greater than 20 µM; in data set [2] (2 h, tpre 2 h with inhibitor), greater than 20 µM.

`C=CCS[S+]([O-])CC=C` (centres unmarked) [compound 25, allicin, reference compound] had a GI50 at 1 h in data set [1] (setting [4]) greater than 0.5 mM. This compound also displayed a GI50 at 2 h in data set [1] (setting [4]) greater than 0.5 mM. In data set [2], the “Inhibition of uptake of reporter 1, in words” value is “disappointing”. Besides, the minimal effective concentration in data set [2] (1 h, tpre 1 h with inhibitor) was greater than 500 µM; in data set [2] (2 h, tpre 2 h with inhibitor), greater than 500 µM. For the same compound, the IC50 in data set [2] (tpre 1 h with inhibitor) and in data set [2] (tpre 2 h with inhibitor) was greater than 0.5 mM each time.

For `CNC(=O)[C@H](CS[S+]([O-])C[C@H](NC(=O)OC(C)(C)C)C(=O)NC)NC(=O)OC(C)(C)C` (some centres unmarked) [compound 26], the GI50 in data set [1] (tpre 1 h with inhibitor) is greater than 1 mM. Besides, the “Inhibition of uptake of reporter 1, in words” value in data set [2] is “disappointing”. Further, in data set [2] (1 h, tpre 1 h with inhibitor), the minimal effective concentration is greater than 1000 µM. For the same compound, in data set [2] (tpre 1 h with inhibitor), the IC50 was greater than 1 mM.

On to `O=C(O)CCCCC1CCS[S+]1[O-]` (centres unmarked) [compound 27], for which the GI50 in data set [1] (tpre 1 h with inhibitor) is greater than 5 mM; in data set [1] (tpre 2 h with inhibitor), greater than 5 mM; in data set [1] (tpre 4 h with inhibitor), 1.8 ± 0.3 mM. Moreover, the minimal effective concentration in data set [2] (1 h, tpre 1 h with inhibitor) is greater than 2000 µM; in data set [2] (2 h, tpre 2 h with inhibitor), greater than 2000 µM; in data set [2] (4 h, tpre 4 h with inhibitor) it was greater than 2000 µM. The IC50 in data set [2] (tpre 1 h with inhibitor), in data set [2] (tpre 2 h with inhibitor) and in data set [2] (tpre 4 h with inhibitor) was greater than 2 mM throughout.

`O=C(O)C1CSSC1` [compound 28]: the GI50 in data set [1] (tpre 1 h with inhibitor), in data set [1] (tpre 2 h with inhibitor) and in data set [1] (tpre 4 h with inhibitor) was greater than 2 mM in each case. Further, the minimal effective concentration in data set [2] (1 h, tpre 1 h with inhibitor) was greater than 2000 µM; in data set [2] (2 h, tpre 2 h with inhibitor), greater than 2000 µM; in data set [2] (4 h, tpre 4 h with inhibitor), greater than 2000 µM. Also, the IC50 in data set [2] (tpre 1 h with inhibitor), in data set [2] (tpre 2 h with inhibitor) and in data set [2] (tpre 4 h with inhibitor) was greater than 2 mM each time.

Consider `O[C@@H]1CSSC[C@@H]1O` [compound 29], for which the GI50 in data set [1] (tpre 1 h with inhibitor), in data set [1] (tpre 2 h with inhibitor) and in data set [1] (tpre 4 h with inhibitor) was greater than 2 mM throughout. Also, the minimal effective concentration in data set [2] (1 h, tpre 1 h with inhibitor) is greater than 2000 µM; in data set [2] (2 h, tpre 2 h with inhibitor), greater than 2000 µM; in data set [2] (4 h, tpre 4 h with inhibitor) it was greater than 2000 µM. For the same compound, the IC50 in data set [2] (tpre 1 h with inhibitor), in data set [2] (tpre 2 h with inhibitor) and in data set [2] (tpre 4 h with inhibitor) was greater than 2 mM in each case.

In the case of `O=C(O)CCCCC1CCSS1` (centres unmarked) [compound 30], the GI50 at 1 h in data set [1] (setting [4]) is greater than 2 mM. This compound also yielded a GI50 at 2 h in data set [1] (setting [4]) greater than 2 mM. This compound yielded a GI50 at 4 h in data set [1] (setting [4]) greater than 2 mM. Besides, the minimal effective concentration in data set [2] (1 h, tpre 1 h with inhibitor) is greater than 2000 µM; in data set [2] (2 h, tpre 2 h with inhibitor) it was greater than 2000 µM; in data set [2] (4 h, tpre 4 h with inhibitor) it was greater than 2000 µM. Besides, the IC50 in data set [2] (tpre 1 h with inhibitor), in data set [2] (tpre 2 h with inhibitor) and in data set [2] (tpre 4 h with inhibitor) was greater than 2 mM each time.
